This is an account of results in patent US12145927B2 (BRISTOL-MYERS SQUIBB COMPANY, priority 2018, dated 2024).

In general, IC50 refers to the concentration needed to halve the response being measured.

The target in this assay is T1, human IDO1 (Homo sapiens, UniProt P14902).
T1 construct: expressed in transfected cells
T1 sequence (P14902 whole entry): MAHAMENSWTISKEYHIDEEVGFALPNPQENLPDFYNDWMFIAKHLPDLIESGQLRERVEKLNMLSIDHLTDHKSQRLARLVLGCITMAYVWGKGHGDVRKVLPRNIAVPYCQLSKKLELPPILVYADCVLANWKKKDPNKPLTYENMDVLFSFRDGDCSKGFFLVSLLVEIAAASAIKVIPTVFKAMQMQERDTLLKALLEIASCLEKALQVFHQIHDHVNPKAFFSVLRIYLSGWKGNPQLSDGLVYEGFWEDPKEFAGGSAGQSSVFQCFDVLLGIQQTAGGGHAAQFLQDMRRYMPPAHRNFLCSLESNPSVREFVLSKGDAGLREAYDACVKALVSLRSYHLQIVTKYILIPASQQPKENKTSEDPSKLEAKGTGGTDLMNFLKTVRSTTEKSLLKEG
The assay is described as follows: IDO inhibition assay in human IDO1/HEK293 cells (IDO1 HEK Human). The class given is cell-based. To be noted: HEK293 cells stably expressing human IDO1; 20 hours incubation; absorbance at 490 nm after Ehrlich reagent. Put shortly: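 HEK293 clones stably expressing human IDO1 (10,000 cells/well, phenol red-free RPMI, 10% FBS) were treated with compound for 20 hours at 37° C. After 0.2% TCA and 30 min at 50° C., kynurenine was read with Ehrlich reagent at 490 nm. IC50 was normalised to DMSO (0%) and 500 nM reference standard (100%).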
As for `C=C[C@H]1Oc2c(NC(=O)Nc3ccc(C)cc3)cc(-c3ccccc3-c3nnn[nH]3)cc2[C@@H]1CCC(F)(F)F` (single isomer, unassigned) [Example 129, 1-((trans)-5-(2-(1H-tetrazol-5-yl)phenyl)-3-(3,3,3-trifluoropropyl)-2-vinyl-2,3-dihydrobenzofuran-7-yl)-3-(p-tolyl)urea], half-maximal inhibition (IC50) required 16 nM.

As for `Cc1ccc(-c2nnn[nH]2)c(-c2cc(Nc3ccc(Cl)cc3)c3c(c2)C(c2ccccc2)CCCO3)c1` (single isomer, unassigned) [Example 78, N-(4-chlorophenyl)-7-(5-methyl-2-(1H-tetrazol-5-yl)phenyl)-5-phenyl-2,3,4,5-tetrahydrobenzo[b]oxepin-9-amine], the half-inhibitory concentration (IC50) was found to be 8.5 nM. The figure for `C=CC1Oc2c(NC(=O)Nc3ccc(C)cc3)cc(C3(c4nnn[nH]4)CC3)cc2C1c1ccccc1` (racemic) [Example 112, (+/−)1-(5-(1-(1H-tetrazol-5-yl)cyclopropyl)-3-phenyl-2-vinyl-2,3-dihydrobenzofuran-7-yl)-3-(p-tolyl)urea] is 7900 nM; for `Cc1cc(NC(=O)Nc2cc(-c3ccccc3-c3nnn[nH]3)cc3c2OCCCC3c2ccccc2)no1` (stereo not shown) [Example 15, 1-(7-(2-(1H-tetrazol-5-yl)phenyl)-5-phenyl-2,3,4,5-tetrahydrobenzo[b]oxepin-9-yl)-3-(5-methylisoxazol-3-yl)urea] it is 232 nM. The same measure for `CC1(C)Oc2c(NC(=O)Nc3ccc(C(F)(F)F)nc3)cc(-c3ccccc3C(=O)O)cc2C1c1ccccc1` (racemic) [Example 128, (±)-2-(2,2-Dimethyl-3-phenyl-7-(3-(6-(trifluoromethyl)pyridin-3-yl)ureido)-2,3-dihydrobenzofuran-5-yl)benzoic acid]: 2300 nM; for `Cc1ccc(CC(=O)Nc2cc(-c3ccccc3-c3nnn[nH]3)cc3c2OCCCC3C2CC2)cc1` (single isomer, unassigned) [37 (En. 2), N-(7-(2-(1H-tetrazol-5-yl)phenyl)-5-cyclopropyl-2,3,4,5-tetrahydrobenzo[b]oxepin-9-yl)-2-(p-tolyl)acetamide]: 30.8 nM.

In turn, `O=C(Nc1cc(-c2ccccc2-c2nnn[nH]2)cc2c1OCCCC2c1ccccc1)NC1CC1` (single isomer, unassigned) [23 (En. 1), 1-(7-(2-(1H-tetrazol-5-yl)phenyl)-5-phenyl-2,3,4,5-tetrahydrobenzo[b]oxepin-9-yl)-3-cyclopropylurea] came in with an IC50 of 3500 nM.

`CCC(C)C1CCCOc2c(NC(=O)Cc3ccc(C)cc3)cc(-c3ccccc3-c3nnn[nH]3)cc21` (single isomer, unassigned) [30 (Dia. mix 1), N-(7-(2-(1H-tetrazol-5-yl)phenyl)-5-(sec-butyl)-2,3,4,5-tetrahydrobenzo[b]oxepin-9-yl)-2-(p-tolyl)acetamide]: it took 77.6 nM to reach half-maximal inhibition (IC50). Compared with the last molecule, the IC50 is about 45-fold lower.

In turn, `Cc1ccc(NC(=O)Nc2cc(-c3ccccc3C(=O)O)cc3c2OCCCC3c2ccccc2)cc1` (single isomer, unassigned) [Example 8-2, 2-(5-phenyl-9-(3-(p-tolyl)ureido)-2,3,4,5-tetrahydrobenzo[b]oxepin-7-yl)benzoic acid] returned an IC50 of 970 nM. Molecule `Cc1ccc(NC(=O)Nc2cc(-c3ccccc3-c3nnn[nH]3)cc3c2OC(C(C)C)C3c2ccccc2)cc1` (racemic) [Example 103] registered a half-inhibitory concentration (IC50) of 11 nM. `Cc1ccc(CC(=O)Nc2cc(-c3ccccc3-c3nnn[nH]3)cc3c2OCCCC3C(C)C)cc1` (racemic) [25 (Rac), N-(7-(2-(1H-tetrazol-5-yl)phenyl)-5-isopropyl-2,3,4,5-tetrahydrobenzo[b]oxepin-9-yl)-2-(p-tolyl)acetamide] returned an IC50 of 29.9 nM. Consider `Cc1ccc(-c2noc(Nc3cc(-c4ccccc4-c4nnn[nH]4)cc4c3OCCCC4c3ccccc3)n2)cc1` (single isomer, unassigned) [26 (En. 1), N-(7-(2-(1H-tetrazol-5-yl)phenyl)-5-phenyl-2,3,4,5-tetrahydrobenzo[b]oxepin-9-yl)-3-(p-tolyl)-1,2,4-oxadiazol-5-amine], for which half-maximal inhibition (IC50) required 2560 nM. The figure for `C=C(C)C1Oc2c(NC(=O)Nc3ccc(C)cc3)cc(-c3ccc(OC)c(C(=O)O)c3)cc2C1c1ccccc1` (racemic) [Example 97] is 1800 nM. With `C=C[C@H]1Oc2c(NC(=O)Nc3ccc(C)cc3)cc(-c3ccccc3-c3nnn[nH]3)cc2[C@@H]1c1ccccc1` (single isomer, unassigned) [Example 88, 1-((trans)-5-(2-(1H-tetrazol-5-yl)phenyl)-3-phenyl-2-vinyl-2,3-dihydrobenzofuran-7-yl)-3-(p-tolyl)urea], the midpoint of inhibition, the IC50, lay at 105 nM. The same measure for `c1ccc(C2CCCOc3c(Nc4nc5ccccc5s4)cc(-c4ccccc4-c4nnn[nH]4)cc32)cc1` (single isomer, unassigned) [64 (En. 2), N-(7-(2-(1H-tetrazol-5-yl)phenyl)-5-phenyl-2,3,4,5-tetrahydrobenzo[b]oxepin-9-yl) benzo[d]thiazol-2-amine]: 17 nM. The figure for `Cc1ccc(CC(=O)Nc2cc(-c3ccccc3-c3nnn[nH]3)cc3c2OCCC(C)C3c2ccccc2)cc1` (single isomer, unassigned) [Example 47, N-(7-(2-(1H-tetrazol-5-yl)phenyl)-4-methyl-5-phenyl-2,3,4,5-tetrahydrobenzo[b]oxepin-9-yl)-2-(p-tolyl)acetamide] is 282 nM; for `Cc1cnc(Nc2cc(-c3ccccc3-c3nnn[nH]3)cc3c2OCCCC3c2ccccc2)nc1` (single isomer, unassigned) [55 (En. 1), N-(7-(2-(1H-tetrazol-5-yl)phenyl)-5-phenyl-2,3,4,5-tetrahydrobenzo[b]oxepin-9-yl)-5-methylpyrimidin-2-amine] it is 1400 nM. `CC1(C)Oc2c(NC(=O)Nc3ccc(C(F)(F)F)nc3)cc(-c3ccccc3-c3nnn[nH]3)cc2C1c1ccccc1` (racemic) [Example 127, (±)-1-(5-(2-(1H-Tetrazol-5-yl)phenyl)-2,2-dimethyl-3-phenyl-2,3-dihydrobenzofuran-7-yl)-3-(6-(trifluoromethyl)pyridin-3-yl)urea]: inhibition was half-maximal at 2100 nM (IC50). Molecule `C=C[C@H]1Oc2c(NC(=O)Nc3ccc(C)cc3)cc(-c3ccccc3-c3nnn[nH]3)cc2[C@@H]1CCC(F)(F)F` (single isomer, unassigned) [Example 130, 1-((trans)-5-(2-(1H-tetrazol-5-yl)phenyl)-3-(3,3,3-trifluoropropyl)-2-vinyl-2,3-dihydrobenzofuran-7-yl)-3-(p-tolyl)urea] had a concentration for half-maximal inhibition (IC50) of 40 nM. Consider `C=CC1Oc2c(NC(=O)Nc3ccccc3F)cc(-c3ccccc3-c3nnn[nH]3)cc2C1c1ccccc1` (racemic) [Example 95], for which the IC50 stood at 88 nM.

Turning to `O=C(Nc1ccccc1F)Nc1cc(-c2ccccc2-c2nnn[nH]2)cc2c1OCCCC2c1ccccc1` (single isomer, unassigned) [10 (En. 1), 1-(7-(2-(1H-tetrazol-5-yl)phenyl)-5-phenyl-2,3,4,5-tetrahydrobenzo[b]oxepin-9-yl)-3-(2-fluorophenyl)urea], the IC50 was found to be 1450 nM. This IC50 lies about 16-fold higher than the previous one. The same measure for `O=C(Nc1ccccc1F)Nc1cc(-c2ccccc2-c2nnn[nH]2)cc2c1OCCCC2c1ccc(F)cc1` (stereo not shown) [Example 70, 1-(7-(2-(1H-tetrazol-5-yl)phenyl)-5-(4-fluorophenyl)-2,3,4,5-tetrahydrobenzo[b]oxepin-9-yl)-3-(2-fluorophenyl)urea]: 28.2 nM.
